In the assay the test system is IκB Kinase (IκK). In words: IκK activity ELISA in YAMC cells exposed to C. rodentium. Format: cell-based, mouse. The settings on record: FIG. 2D. Here is the method:
Akt kinase can phosphorylate and activate IκB Kinase (IκK), which leads to the de-repression of NFκB by IκB. As described above, COG peptides reduce phosphorylation of IκB and subsequent activation of NFκB induced by a Toll-like receptor 4 agonist (LPS). To determine if COG peptides also affect IκK activation, IκK activity was assessed in cytoplasmic cellular lysates of young adult mouse colon (YAMC) cells exposed to C. rodentium bacteria alone or in the presence of COG112 (SEQ ID NO: 2). IκK activity was measured using a specific ELISA assay (K-LISATM detection kit, Calbiochem/EMD Biosciences). Cytosolic cell extracts were incubated in glutathionine coated wells of a 96-well plate with a glutathione S transferase (GST)-tagged IκB-α fusion polypeptide substrate that includes the Ser32 and Ser36 IκB-α kinase phosphorylation sites. Phosphorylated GST-IκB-α substrate was detected using horseradish peroxidase-conjugated anti-phospho-IκB-α antibody. Optical density proportional to kinase activity was measured at 450 nm in a plate reader. The time course of IκK activation induced by C. rodentium in the presence (closed squares) or absence (open squares) of COG112 is shown in FIG. 2D. Time 0 indicates cells that were not stimulated with C. rodentium.
(ELISA stands for enzyme-linked immunosorbent assay.)

Drawing on patent publication US20110166079A1, “METHODS OF TREATING CANCER WITH APOE PEPTIDES” (COGNOSCI, INC., priority 2008, published 2011), this text covers IκK activity for 1 substance.

Regarding “Ac-RQIKIWFQNRRMKWKKCLRVRLASHLRKLRKRLL-NH2 (N-terminus and C-terminus assumed) [COG112]”, the IκK activity result is listed as “substantially reduced”.
